Assay results as given in patent US9102642B2, “Herbicidally active cyclic diones and derivatives thereof, processes for their preparation, compositions, and methods of controlling weeds” (Syngenta Limited, priority 2009, dated 2015).

Key:
Experiment in all cases: Pre-emergence herbicidal activity, glasshouse pot test
Format in all cases: in vivo
Settings in all cases: 312 h, Rate 250 g/ha, evaluated after 13 days, 100=total damage to plant, 0=no damage to plant
[1] = test system: Echinochloa crus-galli (ECHCG)
Description: (§1) Seeds of a variety of test species were sown in standard soil in pots. After cultivation for one day (pre-emergence) or after 8 days cultivation (post-emergence) under controlled conditions in a glasshouse (at 24/16° C., day/night; 14 hours light; 65% humidity), the plants were sprayed with an aqueous spray solution derived from the formulation of the technical active ingredient in acetone/water (50:50) solution containing 0.5% Tween 20 (polyoxyethelyene sorbitan monolaurate, CAS RN 9005-64-5). The test plants were then grown in a glasshouse under controlled conditions in a glasshouse (at 24/16° C., day/night; 14 hours light; 65% humidity) and watered twice daily. After 13 days for pre and post-emergence, the test was evaluated (100=total damage to plant; 0=no damage to plant). Test Plants: Lolium perenne (LOLPE), Alopecurus myosuroides (ALOMY), Echinochloa crus-galli (ECHCG), and Avena fatua (AVEFA). Pre-Emergence Activity

Lolium perenne (LOLPE) = test system: Lolium perenne (LOLPE)
Description: as §1

Avena fatua (AVEFA) = test system: Avena fatua (AVEFA)
Description: as §1

[2] = test system: Alopecurus myosuroides (ALOMY)
Description: as §1

SMILES	pest or weed control at 250 g/ha [1] [%]	pest or weed control at 250 g/ha (Lolium perenne (LOLPE)) [%]	pest or weed control at 250 g/ha (Avena fatua (AVEFA)) [%]	pest or weed control at 250 g/ha [2] [%]
CCc1cc(Oc2ccc(F)cc2)ccc1C1=C(O)C(C)(C)OC(C)(C)C1=O [Compound A-6]	100	100	30	60
CCc1cc(Oc2ncc(Cl)cc2F)ccc1C1=C(O)C(C)(C)OC(C)(C)C1=O [Compound A-8]	100	100	30	40
Cc1cc(Oc2ncccc2Cl)cc(C)c1C1=C(O)CCCC1=O [Compound A-16]	0	0	0	0
CCc1cc(Oc2ccc(Br)cc2)ccc1C1=C(O)C(C)(C)OC(C)(C)C1=O [Compound A-5]	40	30	10	10
CCc1cc(Oc2ccc(C(F)(F)F)cn2)ccc1C1=C(O)C(C)(C)OC(C)(C)C1=O [Compound A-9, 4-[4-(5-trifluoromethylpyridin-2-yloxy)-2-ethylphenyl]-2,2,6,6-tetramethylpyran-3,5-dione]	30	60	0	20
CCc1cc(Oc2ncc(C(F)(F)F)cc2Cl)ccc1C1=C(O)C(C)(C)OC(C)(C)C1=O [Compound A-11]	100	100	90	90
CCc1cc(Oc2cnc3cc(Cl)ccc3n2)ccc1C1=C(O)C(C)(C)OC(C)(C)C1=O [Compound A-10, 4-[4-(6-chloroquinoxalin-2-yloxy)-2-ethylphenyl]-2,2,6,6-tetramethylpyran-3,5-dione]	100	100	90	70
CCc1cc(Oc2ccc(Cl)cc2F)ccc1C1=C(O)C(C)(C)OC(C)(C)C1=O [Compound A-3]	20	20	10	20
CCc1cc(Oc2ccc(Cl)cc2Cl)ccc1C1=C(O)C(C)(C)OC(C)(C)C1=O [Compound A-2]	50	70	0	20
CCc1cc(Oc2ccc(Cl)cc2)ccc1C1=C(O)C(C)(C)OC(C)(C)C1=O [Compound A-4]	60	60	20	20
CCc1cc(Oc2ccc(Cl)c(F)c2)ccc1C1=C(O)C(C)(C)OC(C)(C)C1=O [Compound A-7, 4-[4-(4-chloro-3-fluorophenoxy)-2-ethylphenyl]-2,2,6,6-tetramethylpyran-3,5-dione]	60	80	20	40
Cc1cc(Oc2cnc3cc(Cl)ccc3n2)cc(C)c1C1=C(O)C(C)(C)OC(C)(C)C1=O [Compound A-14]	20	50	10	30
